This assay concerns the target T1, h-5-HT6 receptor (Homo sapiens, UniProt P50406).
T1 construct: expressed in transfected cells
The assay is described as follows: 5-HT6 receptor binding assay (displacement of [3H]-LSD). On the procedure:
Displacement of Radioligands Binding to The Following Cloned Human Receptors
Cells from stable clonal cell lines expressing the corresponding receptor (5-HT6, α1-adrenergic, dopamine D2 or histamine H1 receptors) were washed with PBS (w/o Ca^++, Mg^++) and harvested in PBS with 0.02% EDTA. The cells were collected by centrifugation at 500 g for 10 min. at 4° C., washed with PBS and centrifuged (500 g, 10 min. 4° C.). The pellets were stored at −80° C. until use. For membrane preparation, the thawed cell pellet was resuspended in ice-cold sucrose buffer (0.25 M sucrose, 10 mM Hepes (pH 7.4), 1 mM Phenylmethylsulfonyl fluoride (PMSF) in DMSO, 5 μg/ml Pepstatin-A, 3 mM EDTA, 0.025% Bacitracin) and homogenized with a Branson Sonifier W-250 (Settings: Timer 4; Output Control 3; Duty Cycle constant; 2 to 3 cycles). Cell disruption was checked with the aid of a microscope. Remaining unbroken cells were pelleted at 1.000 g for 10 min. at 4° C. The sucrose buffer supernatant was then centrifuged at 60.000 g for 1 h at 4° C. (Beckman Ultrazentrifuge XL 80). The pellet was resuspended in 30 ml ice-cold Tris buffer (20 mM TRIS (pH 7.4), 5 μg/ml Pepstatin A, 0.1 mM PMSF, 3 mM EDTA) by pipetting through a 10 ml serological pipet and centrifuged for 1 h at 4° C. at 60.000 g. A final resuspension was performed in a small volume of ice-cold Tris buffer (see above) by pressing through a serological pipet followed by ultrasonic treatment with a Branson Sonifier W-250 (Settings: Timer 1; Output Control 3; Duty Cycle constant; 1 cycle). Protein concentration was determined (BCA-Kit; Pierce) and aliquots stored at −80° C. or in liquid nitrogen for long-term storage.
All receptor binding experiments were carried out in the corresponding assay buffer in a total volume of 200 μl in the presence of various concentrations of test compound (10^−5 M to 10^−9 M, tenfold serial dilution, duplicate determinations). The assays were terminated by filtration on polyethylenimine (PEI 0.1% or 0.3%) presoaked Packard Unifilter Plates (GF/C or GF/B) with a Tomtec Machin U 96 well-plate harvester. After the plates had been dried for 2 h at 55° C. in a drying chamber scintillation cocktail (BetaPlate Scint; PerkinElmer) was added. Radioactivity was measured in a Microbeta Trilux two hours after the addition of the scintillation mixture. Data derived from liquid scintillation counting were analysed by iterative non-linear regression analysis with the use of the Statistical Analysis System (SAS): a program similar to “LIGAND” as described by Munson and Rodbard (Analytical Biochemistry 107, 220-239 (1980).
HEK293 cells stably expressing the h-5-HT6 receptor (NCBI Reference Sequence XM 001435) were cultured in RPMI1640 medium supplemented with 25 mM HEPES, 10% fetal calf serum and 1-2 mM glutamine. The membrane preparation was performed as described in section 1. […] Non-specific binding was defined with 1 μM methiothepin. The binding reaction was carried out for 3.5 h at room temperature. During the incubation, the plates were shaken on a plate shaker at 100 rpm and terminated by filtration on Packard Unifilter GF/C (0.1% PEI) plates, followed by 2 wash cycles with ice-cold 50 mM Tris-HCl, 5 mM CaCl2.
Data derived from liquid scintillation counting were analyzed by iterative non-linear regression analysis with the use of the Statistical Analysis System (SAS): a program similar to “LIGAND” as described by Munson and Rodbard (Anal. Biochem. 1980, 107, 220-239). Fitting was performed according to formulae described by Feldman (Anal. Biochem. 1972, 48, 317-338). IC50, nH and Ki values were expressed as geometrical mean.

The mark [1] stands for this setting: membranes of HEK293 cells expressing h-5-HT6 receptor, 1 nM [3H]-LSD, read-out: Ki (5HT6).

Structures are written as SMILES. Structures can show the parent of a compound that is named as a salt. Where two headings read alike, the source gives them in different places.

Drawing on patent US8343959B2, “N-phenyl-(piperazinyl or homopiperazinyl)-benzenesulfonamide or benzenesulfonyl-phenyl-(piperazine or homopiperazine) compounds suitable for treating disorders that respond to modulation of the serotonin 5-HT6 receptor” (Abbott GmbH & Co. KG, priority 2009, dated 2013), this text covers Ki for 27 compounds.

By Ki is commonly meant a dissociation constant, usually derived from enzyme kinetics or from competition with a known ligand.

T1 sequence (P50406 whole entry): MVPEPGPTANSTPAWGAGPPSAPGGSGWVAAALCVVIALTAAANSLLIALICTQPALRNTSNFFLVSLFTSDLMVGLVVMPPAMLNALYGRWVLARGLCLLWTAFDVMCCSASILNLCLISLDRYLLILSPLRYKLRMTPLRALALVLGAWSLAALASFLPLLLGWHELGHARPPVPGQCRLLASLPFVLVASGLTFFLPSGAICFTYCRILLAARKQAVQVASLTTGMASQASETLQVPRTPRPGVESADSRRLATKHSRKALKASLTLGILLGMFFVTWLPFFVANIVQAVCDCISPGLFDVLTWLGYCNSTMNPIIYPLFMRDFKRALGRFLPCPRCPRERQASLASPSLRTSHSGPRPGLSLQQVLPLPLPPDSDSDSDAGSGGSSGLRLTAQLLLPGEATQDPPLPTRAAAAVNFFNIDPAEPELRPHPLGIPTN

As to `CCCN(c1ccccc1OC(F)F)S(=O)(=O)c1ccc(OC)c(N2CCNCC2)c1` [Example 36, N-(2-Difluoromethoxy-phenyl)-4-methoxy-3-piperazin-1-yl-N-propyl-benzenesulfonamide hydrochloride], the Ki under setting [1] was below 10 nM.
As to `COc1ccc(S(=O)(=O)Nc2ccccc2OC(F)F)cc1N1CCN(C)CC1` [Example 37, N-(2-Difluoromethoxy-phenyl)-4-methoxy-3-(4-methyl-piperazin-1-yl)-benzenesulfonamide hydrochloride], the Ki under setting [1] is below 10 nM.
Turning to `COc1ccc(NS(=O)(=O)c2ccc(OC)c(N3CCN(C)CC3)c2)cc1OC(F)F` [Example 38, N-(3-Difluoromethoxy-4-methoxy-phenyl)-4-methoxy-3-(4-methyl-piperazin-1-yl)-benzenesulfonamide hydrochloride], the Ki under setting [1] is below 10 nM.
Take `Cc1ccc(S(=O)(=O)N(c2ccccc2OC(F)F)C(C)C)cc1N1CCNCC1` [Example 39, N-(2-Difluoromethoxy-phenyl)-N-isopropyl-4-methyl-3-piperazin-1-yl-benzenesulfonamide hydrochloride]: the Ki under setting [1] was below 500 nM.
As to `COc1ccc(S(=O)(=O)Nc2cccc3c2OC(F)(F)O3)cc1N1CCNCC1` [Example 40, N-(2,2-Difluoro-benzo[1,3]dioxol-4-yl)-4-methoxy-3-piperazin-1-yl-benzenesulfonamide hydrochloride], the Ki under setting [1] was below 50 nM.
On the same count and under the same terms, under `O=S(=O)(Nc1ccccc1OC(F)F)c1cccc(N2CCNCC2)c1` [Example 41, N-(2-Difluoromethoxy-phenyl)-3-piperazin-1-yl-benzenesulfonamide hydrochloride] stands below 10 nM; under `CN1CCN(c2cccc(S(=O)(=O)Nc3ccccc3OC(F)F)c2)CC1` [Example 42, N-(2-Difluoromethoxy-phenyl)-3-(4-methyl-piperazin-1-yl)-benzenesulfonamide hydrochloride], below 10 nM; under `CN(c1ccccc1OC(F)F)S(=O)(=O)c1cccc(N2CCNCC2)c1` [Example 43, N-(2-Difluoromethoxy-phenyl)-N-methyl-3-piperazin-1-yl-benzenesulfonamide hydrochloride], below 500 nM.
As for `O=S(=O)(c1cccc(OC(F)F)c1)c1cccc(N2CCNCC2)c1` [Example 45, 1-[3-(3-Difluoromethoxy-benzenesulfonyl)-phenyl]-piperazine hydrochloride], the inhibition constant (Ki) under setting [1] is below 10 nM.
The same measure, in the same setting: under `CN1CCN(c2cccc(S(=O)(=O)c3cccc(OC(F)F)c3)c2)CC1` [Example 46, 1-[3-(3-Difluoromethoxy-benzenesulfonyl)-phenyl]-4-methyl-piperazine hydrochloride] stands below 10 nM.
The compound `COc1ccc(S(=O)(=O)c2cccc(OC(F)F)c2)cc1N1CCNCC1` [Example 47, 1-[5-(3-Difluoromethoxy-benzenesulfonyl)-2-methoxy-phenyl]-piperazine hydrochloride] displayed a Ki below 10 nM.
Consider `COc1ccc(S(=O)(=O)c2cccc(OC(F)F)c2)cc1N1CCN(C)CC1` [Example 48, 1-[5-(3-Difluoromethoxy-benzenesulfonyl)-2-methoxy-phenyl]-4-methyl-piperazine hydrochloride], for which the Ki under setting [1] was below 10 nM.
`COc1ccc(S(=O)(=O)c2ccc(OC)c(N3CCNCC3)c2)cc1OC(F)F` [Example 49, 1-[5-(3-Difluoromethoxy-4-methoxy-benzenesulfonyl)-2-methoxy-phenyl]-piperazine hydrochloride]: the Ki under setting [1] was below 10 nM.
On to `COc1ccc(S(=O)(=O)Nc2ccc(OC(F)F)c(OC(F)F)c2)cc1N1CCN(C)CC1` [Example 51, N-(3,4-Bis-difluoromethoxy-phenyl)-4-methoxy-3-(4-methyl-piperazin-1-yl)-benzenesulfonamide hydrochloride], for which the Ki under setting [1] is below 10 nM.
On the same count and under the same terms, the figure for `Cc1ccc(S(=O)(=O)Nc2ccc(OC(F)F)c(OC(F)F)c2)cc1N1CCNCC1` [Example 52, N-(3,4-Bis-difluoromethoxy-phenyl)-4-methyl-3-piperazin-1-yl-benzenesulfonamide hydrochloride] is below 50 nM.
As to `COc1ccc(S(=O)(=O)Nc2cc(Cl)ccc2OC(F)F)cc1N1CCN(C)CC1` [Example 53, N-(5-Chloro-2-difluoromethoxy-phenyl)-4-methoxy-3-(4-methyl-piperazin-1-yl)-benzenesulfonamide hydrochloride], under setting [1], the Ki was below 10 nM.
On to `CCc1ccc(S(=O)(=O)Nc2cc(C)ccc2OC(F)F)cc1N1CCN(C)CC1` [Example 54, N-(2-Difluoromethoxy-5-methyl-phenyl)-4-ethyl-3-(4-methyl-piperazin-1-yl)-benzenesulfonamide], for which, under setting [1], the Ki is below 10 nM.
Consider `COc1ccc(S(=O)(=O)Nc2cc(OC(F)F)ccc2C)cc1N1CCN(C)CC1` [Example 55, N-(5-Difluoromethoxy-2-methyl-phenyl)-4-methoxy-3-(4-methyl-piperazin-1-yl)-benzenesulfonamide hydrochloride], for which the Ki under setting [1] is below 10 nM.
Regarding `Cc1ccc(S(=O)(=O)Nc2cc(Cl)ccc2OC(F)F)cc1N1CCN(C)CC1` [Example 56, N-(5-Chloro-2-difluoromethoxy-phenyl)-4-methyl-3-(4-methyl-piperazin-1-yl)-benzenesulfonamide hydrochloride], under setting [1], the Ki is below 50 nM.
On the same count and under the same terms, the figure for `COc1ccc(S(=O)(=O)Nc2cc(Cl)ccc2OC(F)F)cc1N1CCNCC1` [Example 57, N-(5-Chloro-2-difluoromethoxy-phenyl)-4-methoxy-3-piperazin-1-yl-benzenesulfonamide hydrochloride] is below 10 nM; for `Cc1ccc(OC(F)F)cc1NS(=O)(=O)c1ccc(C)c(N2CCNCC2)c1` [Example 58, N-(5-Difluoromethoxy-2-methyl-phenyl)-4-methyl-3-piperazin-1-yl-benzenesulfonamide hydrochloride] it is below 10 nM; for `COc1ccc(S(=O)(=O)Nc2cc(OC(F)F)ccc2C)cc1N1CCNCC1` [Example 59, N-(5-Difluoromethoxy-2-methyl-phenyl)-4-methoxy-3-piperazin-1-yl-benzenesulfonamide hydrochloride] it is below 10 nM.
On the same count and under the same terms, the figure for `COc1ccc(S(=O)(=O)Nc2ccc(OC(F)F)c(OC(F)F)c2)cc1N1CCNCC1` [Example 60, N-(3,4-Bis-difluoromethoxy-phenyl)-4-methoxy-3-piperazin-1-yl-benzenesulfonamide hydrochloride] is below 10 nM; for `CCc1ccc(S(=O)(=O)Nc2cc(Cl)ccc2OC(F)F)cc1N1CCNCC1` [Example 61, N-(5-Chloro-2-difluoromethoxy-phenyl)-4-ethyl-3-piperazin-1-yl-benzenesulfonamide hydrochloride] it is below 10 nM.
Consider `CCc1ccc(S(=O)(=O)Nc2ccc(C)cc2OC(F)F)cc1N1CCNCC1` [Example 62, N-(2-Difluoromethoxy-4-methyl-phenyl)-4-ethyl-3-piperazin-1-yl-benzenesulfonamide hydrochloride], for which, under setting [1], the Ki is below 10 nM.
Consider `Cc1ccc(OC(F)F)c(NS(=O)(=O)c2ccc(C)c(N3CCN[C@H](C)C3)c2)c1` [Example 63, N-(2-Difluoromethoxy-5-methyl-phenyl)-4-methyl-3-((R)-3-methyl-piperazin-1-yl)-benzenesulfonamide hydrochloride], for which, under setting [1], the Ki is below 10 nM.
`Cc1ccc(OC(F)F)c(NS(=O)(=O)c2ccc(C)c(N3CCN[C@@H](C)C3)c2)c1` [Example 64, N-(2-Difluoromethoxy-5-methyl-phenyl)-4-methyl-3-((S)-3-methyl-piperazin-1-yl)-benzenesulfonamide hydrochloride]: the Ki under setting [1] is below 10 nM.
